# What was measured:
# [1] = system: formation of blood vessels in Matrigel; experiment: Matrigel plug assay (hemoglobin in bFGF/heparin Matrigel implanted in mice); type: in vivo, C57BL/6 female mice; details: 0.65 mg/mouse orally twice per day for four days; control = 100
# Description: 0.4 ml portion of Matrigel each mixed with 50 ng/ml of basic fibroblast growth factor (bFGF) and 50 units of heparin were implanted by subcutaneous injection in 5-week-old C57BL/6 female mice, and a mixture of 0.65 mg ticlopidine and 0.4 mg Ginkgo biloba extract was orally administrated to each mouse twice per day for four days. Then each mouse was sacrificed and the Matrigel was excised. For comparison, the procedure was repeated using ticlopidine or Ginkgo biloba extract alone. The formation of blood vessels in Matrigel was tested by measuring the amount of hemoglobin (Hb) in the Matrigel using the Drabkin reagent kit (Sigma Chemical Co., St. Louise, Mich., USA) which contained standards of known amounts of Hb.
# [2] = system: Human umbilical vein endothelial cells (HUVECs); experiment: Tube formation assay of HUVEC in Matrigel; type: cell-based; details: 50 μM ticlopidine alone; total tube area per well relative to control (100)
# Description: The tube formation assay was performed as follows: 48-well plates were coated with 0.2 ml of Matrigel (BD Bioscience, Bedford, Mass., USA) and incubated at 37° C. for 1 hr. 4˜6×10^4 HUVECs resuspended in 0.4 ml of M199 medium were added to each well. Ticlopidine (Sigma Chemical Co., USA) and Ginkgo biloba extract (Hwa Il Pharmaceutical Co., LTD, Korea), a standardized extract that contained 24% flavonoid glycosides and 6% terpenoids, were added to the Matrigel. Final concentration of ticlopidine and Ginkgo biloba extract were 25 μM and 5 μg/ml, respectively. As a control, the procedure was repeated without added ticlopidine and Ginkgo biloba extract. Comparative runs were also conducted by the same procedure using ticlopidine alone (comparative run 1) or only with Ginkgo biloba extract (comparative run 2). The extent of tube formation was determined by measuring the total tube area per well relative to that of the control using image analysis program Image-Pro Pluso (Media Cybernetics, USA).
compound,measurement,setting,value
"Clc1ccccc1CN1CCc2sccc2C1 [Ticlopidine, 5-[(2-chlorophenyl)methyl]-4,5,6,7-tetrahydrothieno[3,2-C]pyridine]",Hemoglobin (%),[1],95%
same,Total Tube Area %,[2],91%
